For this test, the target named is Tyrosine-protein kinase ABL2 (Homo sapiens) (UniProt P42684). Description: ABL2 kinase inhibition, dose response, biochemical, Z'-LYTE, FRET readout, direct format (AID 1671257). The settings on record: Z'-LYTE FRET kinase assay, recombinant ABL2.
Chain of Tyrosine-protein kinase ABL2 (Homo sapiens) (P42684 whole entry, looked up): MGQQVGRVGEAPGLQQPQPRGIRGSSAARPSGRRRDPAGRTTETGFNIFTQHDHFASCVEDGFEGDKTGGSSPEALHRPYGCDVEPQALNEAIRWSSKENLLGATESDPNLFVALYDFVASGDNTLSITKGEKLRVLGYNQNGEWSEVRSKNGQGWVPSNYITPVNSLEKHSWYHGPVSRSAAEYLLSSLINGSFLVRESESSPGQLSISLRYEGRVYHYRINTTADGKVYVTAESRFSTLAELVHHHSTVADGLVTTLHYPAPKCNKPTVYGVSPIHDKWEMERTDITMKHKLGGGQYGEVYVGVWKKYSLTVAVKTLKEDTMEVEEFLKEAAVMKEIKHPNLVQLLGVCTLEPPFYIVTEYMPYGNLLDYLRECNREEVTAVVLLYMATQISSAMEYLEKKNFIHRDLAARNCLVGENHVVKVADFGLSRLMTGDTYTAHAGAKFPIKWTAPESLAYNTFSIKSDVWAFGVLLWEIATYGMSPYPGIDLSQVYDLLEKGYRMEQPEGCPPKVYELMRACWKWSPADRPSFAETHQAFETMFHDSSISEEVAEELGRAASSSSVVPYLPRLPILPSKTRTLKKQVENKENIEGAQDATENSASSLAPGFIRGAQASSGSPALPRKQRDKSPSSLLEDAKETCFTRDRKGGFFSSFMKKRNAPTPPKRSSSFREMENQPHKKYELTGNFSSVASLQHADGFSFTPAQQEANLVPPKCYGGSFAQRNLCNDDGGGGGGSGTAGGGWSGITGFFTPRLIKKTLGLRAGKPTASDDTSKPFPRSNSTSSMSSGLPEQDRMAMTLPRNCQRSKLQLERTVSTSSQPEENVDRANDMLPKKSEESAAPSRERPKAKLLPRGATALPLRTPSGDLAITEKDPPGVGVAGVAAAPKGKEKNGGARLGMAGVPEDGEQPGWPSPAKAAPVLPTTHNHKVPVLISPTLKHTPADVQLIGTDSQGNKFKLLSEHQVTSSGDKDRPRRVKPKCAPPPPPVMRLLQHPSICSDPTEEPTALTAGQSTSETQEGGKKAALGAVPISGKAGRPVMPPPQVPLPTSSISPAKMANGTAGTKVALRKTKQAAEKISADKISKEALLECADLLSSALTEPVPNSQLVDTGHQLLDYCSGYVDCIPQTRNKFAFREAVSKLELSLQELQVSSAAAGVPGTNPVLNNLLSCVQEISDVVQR

Turning to `COc1cc2ncnc(Nc3cccc(Cl)c3)c2cc1OC`, the IC50 was 1.05 µM.

Values taken from PubChem BioAssay AID1671257.
